These results are taken from patent EP1081131A1 (priority 1998, dated 1999).

By LD50 is commonly meant the dose expected to kill half of the subjects tested. A lower LD50 goes with a more toxic substance.

Data set [1] can be described thus: Carrying of cations from one aqueous phase to another through a layer of nonpolar organic solvent (lipophil membrane). It counts as physicochemical. The protocol:
Purification of the prepared compounds is controlled by the TLC method. The meanings of Rf of the claimed compounds were determined using "Sorbfil" plates (Silicagel CTX-1A, UV) (Russia) or "Silufol- UV" plates (Czechoslovakia). The composition and structure of the new compounds were confirmed by element analysis (C,H,N,O analyzer of the Karlo Erba firm) and also IR (Specord-UV-.751R) and PMR spectroscopy (Tesla BS-597A, 100 MHz). An UZDN-2T ultrasound disperser at a frequency of 22 kHz was used to carry out the reaction with ultrasound action. The cation-carrying properties of the claimed compounds were studied in accordance with a generally accepted method, which consists of studying the carrying of a cation from one aqueous phase to another aqueous phase through a layer of a nonpolar organic solvent.

The next data set relates to S. epidermides. The data set is described as follows: Antibacterial activity in vitro, preparation in a cavity of nutrient agar. The following applies: Table 7. The format is cell-based. The protocol: (§1) The antibacterial activity of the claimed compounds was studied with the method of seeding solutions of the preparation in a cavity. The test-microbe was put in a Petri dish containing a simple nutrient agar. The preparation in an amount of 0.02 ml in necessary concentrations was put in a cavity located in the middle of the Petri dish. The results were taken after 24-hour incubation in a thermostat at 37°C by determination of the zone of delay of growth of the microorganisms along the edges of the cavity.

The test system of the next data set is E. coli. The description is as above. The format is cell-based. The protocol:
as §1

Another data set has as its system Lactobacteria. The description is as above. It counts as cell-based. The following applies: Table 7. The procedure: as §1
The test system of a further data set is M.fortuirum. The data set is described as follows: Antimycobacterial activity in vitro, vertical diffusion on dense nutrient. It counts as cell-based. The following applies: Atypical strain M.fortuirum.
The test system of a further data set is H37Rv. The description is as above. The format is cell-based, mycobacteria. The conditions noted are these: Typical strain H37Rv.
Another data set relates to M. smegmatis. The data set is described as above. The conditions noted are these: Atypical strain M. smegmatis. It counts as cell-based.
A further data set concerns M. avium. Described as above. The format is cell-based. The following applies: Atypical strain M. avium.
The test system of a further data set is M. bovis. The format is cell-based. The following applies: Typical strain M. bovis.
For data set [2], the system named is Sensitive to streptomycin, rifamycin and isoniazid. The data set is described as follows: Bacteriostatic activity on patient strains (Table 4). The format is cell-based, mycobacteria of tuberculosis. The following applies: taken from patients, Central SRI of Tuberculosis RAMS 1997.
For a further data set, the system named is S. aureus. The data set can be described thus: Antibacterial activity in vitro, preparation in a cavity of nutrient agar. It counts as cell-based. The following applies: Table 6. The protocol: as §1
The test system of another data set is P. vulgaris. The description is as above. The format is cell-based. The conditions noted are these: Table 6. The procedure: as §1
Another data set concerns Candida Albicans. Described as above. The conditions noted are these: Table 6. It counts as cell-based. The procedure: as §1
Another data set deals with strain H37Rv. The data set can be described thus: Therapeutic action on infected guinea pigs. It counts as in vivo. The following applies: for Average change in weight of pigs during test / Weight of lungs / Weight of spleen: 21 mg/kg (isoniazid equivalent dose), 5 times a week for 60 days.
Data set [3] in a line: Acute toxicity on mice (per os). The conditions noted are these: mouse, in vivo, white mice, per os in 0.5% solution of starch for 5 days; for LD50: po; for LD50 at 5 days: oral. The procedure:
A study of acute toxicity was carried out according to a standard method on white mice. The animals received the preparation per os in a 0.5% solution of starch for 5 days.

Turning to “1,5-Bis(2-phenyl hydrazonomethyl phenoxy)-3-oxapentane”, the Speed of carrying in data set [1] (Cation of metal Cu) came to 2.0 mol h^-1 10^-7; in data set [1] (Cation of metal Fe) it was 60.0 mol h^-1 10^-7; in [1] (Cation of metal K), 34.5 mol h^-1 10^-7; in [1] (Cation of metal Na), 28.7 mol h^-1 10^-7.

For `O=C(NN=Cc1c(OCCOc2ccc3ccccc3c2C=NNC(=O)c2ccccc2)ccc2ccccc12)c1ccccc1` [1,2-Bis[2(benzoyl hydrazonomethylnaphthoxy-2)]-ethane], the Inhibiting level with S. epidermides, in the data set with E. coli (Table 7) and in the data set with Lactobacteria was more than 50 µg/mL throughout.

Consider `COc1cc(C=NNC(=O)c2ccccc2)ccc1OCCOc1ccc(C=NNC(=O)c2ccccc2)cc1OC` [1,2-Bis(2-methoxy-4-benzoyl hydrazonomethylphenoxy)-ethane], for which the Inhibiting level in the data set with S. epidermides, with E. coli (Table 7) and in the data set on Lactobacteria was more than 50 µg/mL throughout.

With `O=C(NN=Cc1cccc(OCCOCCOCCOc2cccc(C=NNC(=O)c3cccnc3)c2)c1)c1cccnc1.[Ni]` [[1,8-Bis(3-nicotinoyl hydrazonomethyl phenoxy)-3,6-dioxaoctanejnickel(II)], the Inhibiting level with S. epidermides, with E. coli (Table 7) and in the data set with Lactobacteria was more than 50 µg/mL throughout.

As for `O=Cc1ccc(Cl)cc1OCCOc1cc(Cl)ccc1C=O` [1,2-Bis(2-formyl-5-chlorphenoxy)-ethane], the “Antimycobacterial activity of claimed preparations in tests In vitro” value (“Antimycobacterial activity” below) in the data set with M.fortuirum is 25.0 µg/mL; in the data set with H37Rv it was 0.4 µg/mL; with M. smegmatis, 6.3 to 12.5 µg/mL; in the data set on M. avium, 25.0 µg/mL; with M. bovis, 0.4 µg/mL.

Take `O=C(NN=Cc1ccccc1OCCOCCOc1ccccc1C=NNC(=O)c1ccncc1)c1ccncc1` [1,5-Bis(2-isonicotinoyl hydrazonomethylphenoxy)-3-oxapentane]: the “Antimycobacterial activity” value in the data set on M.fortuirum was 12.5 µg/mL; with H37Rv, 0.01 µg/mL; with M. smegmatis it was 12.5 µg/mL; with M. avium it was 25.0 µg/mL; in the data set on M. bovis it was 0.01 µg/mL. Further, the Inhibiting level in data set [2] was 0.58 µg/mL; in the data set with E. coli (Table 6) it was more than 500 µg/mL; in the data set with S. aureus, more than 500 µg/mL; in the data set with P. vulgaris, more than 500 µg/mL; in the data set on Candida Albicans it was more than 500 µg/mL.

Turning to `O=C(NN=Cc1ccccc1OCCOCCOCCOc1ccccc1C=NNC(=O)c1ccncc1)c1ccncc1` [1,8-bis(2-isonicotinoyl hydrazonomethylphenoxy)-3,6-dioxaoctane], the “Average change in weight of pigs during test” value in the data set on strain H37Rv is 148.80 ± 29.40 g. For the same compound, the Weight of lungs with strain H37Rv stood at 4.90 ± 0.90 g. The Weight of spleen with strain H37Rv turned out to be 8.98 ± 0.15 g. Besides, the “Antimycobacterial activity” value in the data set on M.fortuirum is 12.5 µg/mL; in the data set with H37Rv, 0.05 µg/mL; in the data set on M. smegmatis, 12.5 µg/mL; with M. avium, 25.0 µg/mL. In data set [3], this compound yielded an LD50 of more than 2000 mg/kg. For the same compound, the Inhibiting level in the data set with E. coli (Table 6), with S. aureus, in the data set with P. vulgaris and in the data set with Candida Albicans was more than 500 µg/mL each time.

Turning to `O=C(NN=Cc1ccccc1OCCOCCOCCOCCOc1ccccc1C=NNC(=O)c1ccncc1)c1ccncc1` [1.11-Bis(2-isonicotinoyl hydrazonomethylphenoxy)-3,6,9-trioxaundecane], the Inhibiting level in the data set on S. epidermides, in the data set on E. coli (Table 7) and in the data set on Lactobacteria was more than 50 µg/mL in each case.

`O=Cc1ccccc1OCCOc1ccccc1C=O` [1,8-Bis(2-formylphenoxy)-ethane]: the Inhibiting level in the data set with S. epidermides, with E. coli (Table 7) and in the data set on Lactobacteria was more than 200 µg/mL in each case.

On to `C=CCSc1nc2ccc(NC(=O)c3ccccc3Cl)cc2s1` [Compound formula (II), 2-(allylthio)-6-(2-chlorobenzoylamino)benzothiazole, reference compound], for which the “Antimycobacterial activity” value with M.fortuirum worked out at 10.0 µg/mL; in the data set on H37Rv, 10.0 µg/mL; in the data set on M. avium, 25.0 µg/mL.

`O=Cc1ccccc1OCCOCCOc1ccccc1C=O` yielded an LD50 at 5 days in data set [3] of more than 2000 mg/kg.

For the compound `O=C(NN=Cc1ccccc1OCCCCOCCCCOc1ccccc1C=NNC(=O)c1cccnc1)c1cccnc1` [1,9-Bis(2-nicotinoyl hydrazonomethylphenoxy)-5-oxanonon], the Inhibiting level in the data set with S. epidermides, in the data set on E. coli (Table 7) and with Lactobacteria was more than 100 µg/mL each time.

As to `O=C(NN=Cc1ccccc1OCCOCCOc1ccccc1C=NNC(=O)c1ccccc1)c1ccccc1` [1,5-Bis(2-benzoyl hydrazonomethylphenoxy)-3-oxapentane], in data set [3], the LD50 was more than 1000 mg/kg.

For `NNC(=O)c1ccncc1` [Isoniazid, hydrazide of isonicotinic acid, reference compound], the “Average change in weight of pigs during test” value in the data set on strain H37Rv amounted to 180.60 ± 18.80 g. In addition, in the data set with strain H37Rv, the Weight of lungs amounted to 4.49 ± 0.80 g. Moreover, in the data set on strain H37Rv, the Weight of spleen is 9.34 ± 0.30 g. Besides, in the data set on strain H37Rv (after 60 days of treatment), the “tuberculosis changes after the end of the course of treatment” value was “detected as morphological, not as bacteriological”. In addition, the “Antimycobacterial activity” value in the data set with M.fortuirum turned out to be 50.0 µg/mL; with H37Rv, 0.05 µg/mL; in the data set with M. smegmatis, 50.0 µg/mL; with M. avium, 50.0 µg/mL; with M. bovis it was 0.05 µg/mL. In data set [3], the LD50 at 5 days amounted to 363 mg/kg. The compound also yielded an Inhibiting level in [2] of 0.29 µg/mL.
